From patent US8501446B2 (Vertex Pharmaceuticals Incorporated, priority 2004, dated 2013) come the findings set out here.

pKi: −log10 of the molar value. Bounds are passed on as bounds.

Common to all, as to type: biochemical
Test [1] concerns the target T1, full length Aurora-A (AA 1-403) (Homo sapiens, UniProt O14965).
T1 construct: full length Aurora-A (AA 1-403)
T1 sequence (O14965 1-403): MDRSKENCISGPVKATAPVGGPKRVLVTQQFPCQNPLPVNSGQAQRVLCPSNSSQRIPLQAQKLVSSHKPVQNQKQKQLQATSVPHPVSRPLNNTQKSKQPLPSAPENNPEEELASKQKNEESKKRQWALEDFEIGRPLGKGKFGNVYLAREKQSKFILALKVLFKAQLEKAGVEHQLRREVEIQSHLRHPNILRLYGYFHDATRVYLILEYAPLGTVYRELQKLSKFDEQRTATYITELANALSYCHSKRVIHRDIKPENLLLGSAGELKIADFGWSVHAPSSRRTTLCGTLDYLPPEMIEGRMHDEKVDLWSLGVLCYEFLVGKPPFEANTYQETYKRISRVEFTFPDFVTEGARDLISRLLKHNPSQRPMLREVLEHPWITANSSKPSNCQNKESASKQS
Nature of the test: Aurora-A inhibition assay, standard coupled enzyme system. Conditions: average Ki if more than one value determined.

A further test deals with JAK2 (Homo sapiens, UniProt O60674). As to the kind of experiment: JAK2 inhibition assay (radioactive enzyme assay, as for JAK3). As to conditions: average Ki if more than one value determined. In outline:
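Both kinases: poly(Glu)4Tyr substrate in 100 mM HEPES pH 7.4, 10 mM MgCl2, 1 mM DTT. Run 20 min at 25° C, TCA stop, filter-bound ³³P counted, Ki(app) fitted after background subtraction. JAK3: final [γ-³³P]ATP 5 μM, enzyme added as 2 nM solution. JAK2: final poly(Glu)4Tyr 15 μM, final ATP 12 μM.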

The target in a further test is ROCK (Homo sapiens, UniProt Q13464). Nature of the test: ROCK inhibition assay, standard radioactive enzyme assay ("33P"). In outline:
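Radiometric kinase assay, 5 nM ROCK with 27 μM MBP and 13 μM [γ-33P]ATP in 100 mM HEPES pH 7.5, 10 mM MgCl2, 25 mM NaCl, 2 mM DTT, 1.5% DMSO; 2 h at room temperature, compounds 10 μM to 2.6 nM. TCA quench, filter capture, scintillation counting; background-subtracted data fit to Ki(app).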

The target of a further test is T2, Aurora-C (Homo sapiens, UniProt Q9UQB9).
T2 sequence (Q9UQB9 1-309): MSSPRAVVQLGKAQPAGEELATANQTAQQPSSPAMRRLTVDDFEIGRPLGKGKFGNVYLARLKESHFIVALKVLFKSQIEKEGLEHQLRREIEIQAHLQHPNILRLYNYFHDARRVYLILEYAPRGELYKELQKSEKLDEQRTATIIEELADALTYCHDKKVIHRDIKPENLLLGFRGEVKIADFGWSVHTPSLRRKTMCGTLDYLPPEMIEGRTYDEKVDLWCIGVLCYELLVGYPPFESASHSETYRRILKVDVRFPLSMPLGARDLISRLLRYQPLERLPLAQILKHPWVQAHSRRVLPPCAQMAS
Nature of the test: Aurora-C inhibition assay, coupled enzyme system as for Aurora-A. As to conditions: average Ki if more than one value determined. The procedure, abridged: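 Coupled PK/LDH NADH-depletion assay with 35 nM enzyme, 200 μM ATP and 800 μM LRRASLG peptide in 100 mM HEPES pH 7.5, 10 mM MgCl2, 25 mM NaCl, 1 mM DTT, 3% DMSO at 30 °C. Compound (0.002-30 μM) was preincubated 10 min before ATP start; rates over 10 min gave Ki by nonlinear regression. Aurora-C run the same way.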

Another test concerns the target Aurora-B (Homo sapiens, UniProt Q96GD4). Nature of the test: Aurora-B inhibition assay, radioactive assay. As to conditions: average Ki if more than one value determined. The procedure, abridged: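 Radiometric [γ-33P]ATP kinase assay run as described for JAK3/ROCK but with Aurora-B protein; 33P incorporation into substrate measured by filter capture and scintillation counting after TCA quench. Background-subtracted data fit to give Ki(app).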

Sequence of ROCK (Q13464 whole entry): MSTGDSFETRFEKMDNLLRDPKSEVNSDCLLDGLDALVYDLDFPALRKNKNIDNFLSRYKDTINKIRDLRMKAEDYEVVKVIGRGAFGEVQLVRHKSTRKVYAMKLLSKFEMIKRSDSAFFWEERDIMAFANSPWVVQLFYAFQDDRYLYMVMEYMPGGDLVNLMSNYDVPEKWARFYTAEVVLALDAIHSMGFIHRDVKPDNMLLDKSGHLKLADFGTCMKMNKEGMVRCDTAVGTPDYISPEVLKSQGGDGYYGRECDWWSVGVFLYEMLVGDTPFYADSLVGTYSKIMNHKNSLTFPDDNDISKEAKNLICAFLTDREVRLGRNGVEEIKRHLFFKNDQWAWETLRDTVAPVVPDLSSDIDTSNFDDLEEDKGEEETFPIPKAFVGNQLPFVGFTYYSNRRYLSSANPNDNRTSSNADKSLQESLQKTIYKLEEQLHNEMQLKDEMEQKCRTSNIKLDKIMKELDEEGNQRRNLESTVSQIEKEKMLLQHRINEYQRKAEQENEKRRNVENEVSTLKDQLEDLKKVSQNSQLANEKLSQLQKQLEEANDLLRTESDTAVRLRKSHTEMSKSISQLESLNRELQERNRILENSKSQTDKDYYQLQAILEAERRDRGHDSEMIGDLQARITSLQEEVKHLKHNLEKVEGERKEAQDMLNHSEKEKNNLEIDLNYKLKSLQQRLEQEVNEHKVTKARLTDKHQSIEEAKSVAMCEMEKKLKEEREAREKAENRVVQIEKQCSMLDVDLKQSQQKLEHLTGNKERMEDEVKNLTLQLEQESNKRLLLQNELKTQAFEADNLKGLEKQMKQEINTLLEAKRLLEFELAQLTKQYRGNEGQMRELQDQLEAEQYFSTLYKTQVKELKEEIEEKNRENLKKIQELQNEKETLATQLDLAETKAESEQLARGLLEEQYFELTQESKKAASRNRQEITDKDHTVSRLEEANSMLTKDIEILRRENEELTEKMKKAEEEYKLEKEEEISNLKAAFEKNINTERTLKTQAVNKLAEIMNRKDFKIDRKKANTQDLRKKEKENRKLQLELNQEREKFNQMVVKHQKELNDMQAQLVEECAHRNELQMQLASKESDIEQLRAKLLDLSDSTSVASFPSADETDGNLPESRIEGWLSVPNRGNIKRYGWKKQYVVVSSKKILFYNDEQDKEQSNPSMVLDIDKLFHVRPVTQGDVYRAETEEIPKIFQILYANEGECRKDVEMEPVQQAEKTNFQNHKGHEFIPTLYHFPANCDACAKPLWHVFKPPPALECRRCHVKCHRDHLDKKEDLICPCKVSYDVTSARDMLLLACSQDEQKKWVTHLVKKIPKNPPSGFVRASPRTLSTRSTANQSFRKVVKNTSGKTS
Sequence of JAK2 (O60674 whole entry, species assumed): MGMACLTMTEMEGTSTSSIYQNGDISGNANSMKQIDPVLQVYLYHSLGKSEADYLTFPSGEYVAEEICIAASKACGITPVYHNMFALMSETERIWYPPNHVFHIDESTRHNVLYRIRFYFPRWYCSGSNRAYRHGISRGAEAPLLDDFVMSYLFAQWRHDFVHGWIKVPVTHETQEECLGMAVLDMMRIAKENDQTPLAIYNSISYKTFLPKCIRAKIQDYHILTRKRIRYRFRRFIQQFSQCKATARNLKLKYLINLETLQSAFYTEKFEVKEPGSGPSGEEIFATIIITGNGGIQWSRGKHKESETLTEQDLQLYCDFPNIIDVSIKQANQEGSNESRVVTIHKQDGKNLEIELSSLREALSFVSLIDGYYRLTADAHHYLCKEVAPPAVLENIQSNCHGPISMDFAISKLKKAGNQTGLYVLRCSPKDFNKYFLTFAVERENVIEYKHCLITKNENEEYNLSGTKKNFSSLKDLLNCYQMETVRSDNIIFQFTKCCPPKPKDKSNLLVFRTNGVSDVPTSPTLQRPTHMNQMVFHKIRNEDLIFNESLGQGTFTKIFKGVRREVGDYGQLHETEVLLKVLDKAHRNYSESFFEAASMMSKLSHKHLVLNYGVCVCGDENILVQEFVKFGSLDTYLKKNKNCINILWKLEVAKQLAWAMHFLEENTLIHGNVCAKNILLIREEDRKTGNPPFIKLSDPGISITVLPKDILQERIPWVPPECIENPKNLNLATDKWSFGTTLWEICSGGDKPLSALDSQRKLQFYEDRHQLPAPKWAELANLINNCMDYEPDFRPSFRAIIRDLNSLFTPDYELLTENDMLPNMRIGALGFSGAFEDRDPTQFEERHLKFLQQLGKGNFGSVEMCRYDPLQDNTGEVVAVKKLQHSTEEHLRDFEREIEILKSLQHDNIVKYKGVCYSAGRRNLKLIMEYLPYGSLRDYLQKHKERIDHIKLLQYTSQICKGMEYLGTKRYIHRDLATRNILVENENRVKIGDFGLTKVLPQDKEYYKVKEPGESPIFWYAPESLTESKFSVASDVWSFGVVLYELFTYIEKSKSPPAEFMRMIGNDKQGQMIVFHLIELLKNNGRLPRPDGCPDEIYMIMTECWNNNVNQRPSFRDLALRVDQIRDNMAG
Sequence of Aurora-B (Q96GD4 whole entry): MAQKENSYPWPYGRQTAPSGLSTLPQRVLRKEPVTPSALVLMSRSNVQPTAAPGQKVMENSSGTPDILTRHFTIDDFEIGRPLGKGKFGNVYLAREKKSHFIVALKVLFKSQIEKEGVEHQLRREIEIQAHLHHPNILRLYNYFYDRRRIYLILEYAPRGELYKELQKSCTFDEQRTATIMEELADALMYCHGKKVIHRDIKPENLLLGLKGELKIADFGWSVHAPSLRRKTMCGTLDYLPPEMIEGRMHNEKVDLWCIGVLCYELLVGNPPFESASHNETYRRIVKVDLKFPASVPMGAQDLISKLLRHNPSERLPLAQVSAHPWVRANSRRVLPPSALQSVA

For the molecule `CC(=O)N1[C@H](C)CN(c2cccc(-c3c[nH]c4ncc(Cl)cc34)n2)C[C@@H]1C` [Compound 19], the pKi (in test [1]; at JAK2; on ROCK) was more than 6.30 throughout.
As for `C[C@H](Nc1nc(-c2c[nH]c3ncc(Cl)cc23)ncc1F)C(=O)NCC(F)(F)F` [Compound 369], the pKi (at Aurora-C; in test [1]; at Aurora-B) was more than 6.30 each time.
Regarding `C[C@H](Nc1cccc(-c2c[nH]c3ncc(Cl)cc23)n1)c1ccc(F)cc1` [Compound 395], the pKi (in test [1]; on Aurora-B; on JAK2) was more than 6.30 throughout.
On to `CCOC(=O)N1CCCN(c2nccc(-c3c[nH]c4ncc(OC)cc34)n2)CC1` [Compound 33], for which the pKi (in test [1]; at JAK2; at ROCK) was more than 6.30 throughout.
Take `COc1cnc2[nH]cc(-c3cccc(N4C[C@@H](C)N(C(C)=O)[C@@H](C)C4)n3)c2c1` [Compound 18]: the pKi in test [1] was 5.30 to 6.30; at JAK2, more than 6.30; at ROCK, 5.30 to 6.30.
Take `COC(=O)c1cnc2[nH]cc(-c3cccc(N4C[C@@H](C)N(C(C)=O)[C@@H](C)C4)n3)c2c1` [Compound 35]: the negative logarithm of the Ki (pKi) (in test [1]; at JAK2; at ROCK) was more than 6.30 throughout.

One may read the pKi as the Ki on a negative log10 scale, so that one unit is a factor of ten.
